Legend:
COX-2 mRNA = COX-2 mRNA by qPCR in NG108-15 cells; assay type: cell-based; conditions: culture transfected with the control vector; 6 hrs after Δ^9-THC
[1] = system: synaptic release of glutamate; test: Miniature spontaneous EPSCs (mEPSCs) in cultured hippocampal neurons; assay type: cell-based; conditions: Δ^9-THC 3 μM; recorded 24 hrs after treatment
PSD-95 = test: Hippocampal PSD-95 expression (immunoblot); assay type: in vivo, mice; conditions: Δ^9-THC for 7 days
Description: Western blot assay was conducted using specific antibodies (Table S1) to determine expressions of COX-2, glutamate receptor subunits, PSD-95, G-protein subunits, phosphoproteins, BACE1 and neprilysin in hippocampal tissue and/or in cultured cells as described previously (Chen et al., 2012). Surface biotinylation assays were performed to determine surface expression of glutamate receptor subunits in hippocampal slices as described previously (Fan et al., 2010).

COX-1 = test: Hippocampal COX-1 expression in mice (immunoblot); assay type: in vivo; conditions: Δ^9-THC 10 mg/kg, detected 4 hrs after injection
NF-κB = NF-κB phosphorylation in NG108-15 cells
COX-2 = COX-2 expression in neuronal and astroglial cell-enriched cultures; assay type: cell-based; conditions: assayed 12 hr after treatment
Description: Relative pure hippocampal neurons (astroglial cells<2%), mixed neurons and astroglial cells (astroglial cells ˜10%), and astroglial cell-enriched (astroglial cells>95%), and NG108-15 cell cultures were made as described previously (Sang et al, 2005; Zhang and Chen, 2008).
Primary hippocampal neurons (astroglial cells<2%), mixed neurons and astroglial cells (astroglial cells ˜10%), astroglial cell-enriched (astroglial cells>95%) and NG108-15 cells were cultured as described previously (Sang et al, 2005; Zhang and Chen, 2008). The extent of neurons and astroglial cells in culture were controlled by different treatments, which was estimated by using immunostaining with NeuN, a neuronal marker, glial fibrillary acidic protein (GFAP), an astrocytic marker, and OX-42, a microglial marker, in conjunction with DAPI staining.

EAAT1, EAAT2, and EAAT3 = test: Hippocampal expression of glutamate transporters (immunoblot); conditions: Δ^9-THC 10 mg/kg once a day for 7 days
spatial memory = test: Morris water maze test (spatial memory); assay type: in vivo, mice; conditions: 10 mg/kg once a day for 7 days
Description: The classic Morris water maze and fear conditioning tests were performed to determine spatial and fear memory as described previously (Chen et al., 2012). The ‘open field’ test was conducted to detect the locomotor activity and the bar test was used to detect catalepsy (Egashira et al., 2007).
The classic Morris water maze test was used to determine spatial memory as described previously (Chen et al., 2012). A circular water tank (diameter 120 cm and 75 cm in high) was filled with water and the water was made opaque with non-toxic white paint. A round platform (diameter 15 cm) was hidden 1 cm beneath the surface of the water at the center of a given quadrant of the water tank. COX-2 KO and WT mice received training in the Morris water maze for 5 days without any treatments (naïve). […] For each trial, the mouse was released from the wall of the tank and allowed to search, find, and stand on the platform for 10 seconds within the 60-second trial period. […] During the probe test, the platform was removed from the pool, and the task performances were recorded for 60 seconds by a video-camera and the task performances, including swimming paths, speed, and time spent in each quadrant using an EthoVision video tracking system (Noldus). The time spent in each quadrant was analyzed.

CCCCCc1cc(O)c2c(c1)OC(C)(C)[C@@H]1CCC(C)=C[C@@H]21 [Δ^9-THC, Δ^9-tetrahydrocannabinol]
COX-2 mRNA expression in NG108-15 cells (COX-2 mRNA): increased expression of COX-2 mRNA
synaptic release of glutamate (mEPSCs) [1]: enhanced synaptic release of glutamate
PSD-95 expression (PSD-95): reduced expression of PSD-95
hippocampal COX-1 expression (COX-1): unaffected
NF-κB phosphorylation (NF-κB): induced NF-κB phosphorylation
COX-2 expression in neuronal and astroglial cell-enriched cultures (COX-2): CB1R-dependent increase in COX-2 expression both in neuronal and astroglial cell-enriched cultures
expression of glutamate transporters (EAAT1, EAAT2, and EAAT3): down-regulated
spatial memory and memory retention after repeated Δ^9-THC (spatial memory): impaired spatial memory and memory retention
